Legend:
Assay in all cases: 3' UTR reporter interaction score (median-centred robust z-score of log2 firefly/Renilla activity); higher = less repression of the 3' UTR reporter
Conditions in all cases: HEK293T; 48 h
[1] = test system: BRCA2
Procedure, shortened: (§1)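 HEK293T cells (10,000/well, 96-well plates) were co-transfected using DharmaFECT Duo with 100 ng firefly luc2P reporter carrying the gene's 3' UTR, 20 ng Renilla pRL-TK control and 2.5 pmol miRNA mimic. Dual-luciferase activities were read 48 h post-transfection. The interaction score is the log-transformed firefly/Renilla ratio as a per-plate robust z-score (median, median absolute deviation), median-centred per miRNA and averaged over at least two independent screens; more negative indicates interaction.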

[2] = test system: EZH2
Procedure, shortened: as §1

[3] = test system: FBXW7
Procedure, shortened: as §1

[4] = test system: HRAS
Procedure, shortened: as §1

[5] = test system: MYB
Procedure, shortened: as §1

[6] = test system: MYCN
Procedure, shortened: as §1

[7] = test system: MYC
Procedure, shortened: as §1

[8] = test system: MYT1L
Procedure, shortened: as §1

[9] = test system: NOTCH1
Procedure, shortened: as §1

[10] = test system: PHF6
Procedure, shortened: as §1

[11] = test system: PHOX2B
Procedure, shortened: as §1

[12] = test system: RB1
Procedure, shortened: as §1

[13] = test system: TP53
Procedure, shortened: as §1

[14] = test system: ZEB2
Procedure, shortened: as §1

Row | Sequence | 3' UTR reporter interaction score [1] | 3' UTR reporter interaction score [2] | 3' UTR reporter interaction score [3] | 3' UTR reporter interaction score [4] | 3' UTR reporter interaction score [5] | 3' UTR reporter interaction score [6] | 3' UTR reporter interaction score [7] | 3' UTR reporter interaction score [8] | 3' UTR reporter interaction score [9] | 3' UTR reporter interaction score [10] | 3' UTR reporter interaction score [11] | 3' UTR reporter interaction score [12] | 3' UTR reporter interaction score [13] | 3' UTR reporter interaction score [14]
1 | AUGAUCCAGGAACCUGCCUCU | 0.796 | 1.23 | 1.33 | -0.133 | -0.332 | 0.642 | 0.0276 | -2.69 | 0.405 | -2.82 | -1.8 | -0.262 | -0.239 | -0.647
2 | AUGCACCUGGGCAAGGAUUCUG | 1.42 | 2.23 | -4.97 | 0.134 | 0.3 | -0.703 | 1.46 | 1.1 | 0.738 | -1.61 | -3.43 | -0.483 | -0.0328 | -2.03
3 | AUGGAGAUAGAUAUAGAAAU | -0.571 | 1.16 | 0.0761 | 0.428 | -0.0865 | -0.424 | 0.503 | -1.67 | -0.424 | -0.821 | 0.37 | -0.936 | 0.174 | 1.49
4 | AUGUAUGUGUGCAUGUGCAUG | -0.994 | 1.67 | 0.682 | 0.472 | -0.0409 | 0.324 | -1.3 | -0.904 | -0.54 | -1.08 | -0.089 | -1.83 | 0.0318 | -0.0851
5 | AUUACAUGGCCAAUCUC | -0.25 | -0.208 | 0.611 | -0.228 | 0.0435 | 0.193 | 0.104 | -0.267 | 0.461 | -0.0228 | 1.43 | -1.24 | 0.293 | -0.413
6 | AUUCAUUUGGUAUAAACCGCGAU | -0.573 | -0.0582 | -1.6 | 0.347 | -0.684 | 0.523 | 0.404 | -0.154 | 0.53 | 0.306 | -0.197 | 0.747 | -1.06 | 0.368
7 | AUUCCUAGAAAUUGUUCAUA | 0.0394 | 0.167 | 0.157 | -0.0105 | 0.61 | -0.577 | -0.586 | 1.2 | 0.632 | 0.216 | -0.529 | -0.707 | -0.0494 | -0.418
8 | AUUCUAAUUUCUCCACGUCUUUG | -0.103 | -4.24 | -0.826 | 0.632 | 0.162 | 0.587 | 0.0131 | 0.697 | -0.432 | -1.02 | 0.107 | -2.85 | 0.345 | -0.49
9 | AUUCUGCAUUUUUAGCAAGU | -0.0751 | 0.847 | -2.1 | 0.548 | 1.56 | 1.34 | 1.31 | -2.22 | -2.14 | 0.263 | -0.262 | 0.0642 | 0.643 | -0.209
10 | AUUGACACUUCUGUGAGUAG | 0.358 | -0.495 | -1.37 | -0.309 | 0.756 | 0.177 | -0.339 | 0.508 | -0.955 | -0.709 | -1.35 | 0.465 | 0.785 | -1.2
11 | CAAAAAUCUCAAUUACUUUUGC | -0.215 | 0.0697 | 0.748 | -0.151 | -1.38 | 0.123 | 0.393 | 0.42 | -0.966 | -0.915 | 0.42 | -0.319 | 0.17 | -0.266
12 | CAAAACUGGCAAUUACUUUUGC | -0.307 | 0.755 | -2.13 | 0.367 | -1.52 | -0.107 | -0.183 | -0.395 | 0.158 | -1.26 | -0.532 | 0.322 | 0.751 | 0.0176
13 | CAAAGAAUUCUCCUUUUGGGCUU | -0.174 | -0.313 | -0.499 | 0.0982 | 0.952 | 0.453 | -0.381 | 0.219 | 1.33 | -0.267 | -0.413 | 1.54 | -0.294 | -0.283
14 | CAAAGAGGAAGGUCCCAUUAC | -0.346 | -0.46 | 0.456 | 0.586 | 0.328 | 0.419 | -0.255 | -0.262 | -0.106 | -0.348 | -0.488 | -0.878 | -1.21 | 1.21
15 | CAAAGCGCUCCCCUUUAGAGGU | -0.715 | 0.467 | -0.27 | 1.33 | -0.147 | -0.228 | 0.756 | -0.44 | -0.101 | 1.12 | 0.264 | -1.27 | -0.173 | 1.31
16 | CAAAGCGCUUCCCUUUGGAGC | -0.805 | 0.322 | 0.503 | 0.795 | -0.305 | 0.103 | -0.581 | -0.495 | 0.413 | 0.27 | 0.957 | -0.468 | -0.385 | 0.353
17 | CAAAGCGCUUCUCUUUAGAGUG | 0.562 | 0.725 | -1.3 | 0.465 | -0.443 | -0.402 | 1.05 | -0.533 | 0.203 | 1.07 | -1.15 | -4.99e-18 | 0.068 | -0.101
18 | CAAAGUGCCUCCCUUUAGAGUGU | 0.407 | -0.27 | 0.81 | 0.317 | 0.155 | 0.839 | -0.351 | -0.343 | 0.00359 | 0.15 | 0.0452 | -0.937 | 0.418 | -0.0865
19 | CAAAGUGCUCAUAGUGCAGGUAG | 0.253 | -0.533 | 1 | 0.757 | -1.73 | -0.62 | -0.364 | -1.37 | 1.52 | 0.651 | 1.67 | 0.42 | 0.0738 | 1.98

— the supplement of paper PMC5844555
